This is an account of results in PubChem BioAssay (NCI).

SMILES strings stand for the structures.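 Tested at 5 concentrations; 48 h exposure; 96-well plates; endpoints linearly interpolated, else capped at highest concentration. At the TGI there is no net growth.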

Among the test systems are ACHN renal; HT29 colon; KM12 colon; NCI-H23 lung; OVCAR-8 ovarian; SF-268 CNS; SF-539 CNS; U251 CNS; UACC-257 melanoma.
Holding throughout (test): NCI anticancer screen, dose series, 48 h

Regarding `O=C(Nc1cccc2c1[nH]c1c(-c3ccccc3)nccc12)c1ccccc1[N+](=O)[O-]`, the TGI in the assay on ACHN renal, in the assay with HT29 colon, in the assay on KM12 colon, in the assay on NCI-H23 lung, with OVCAR-8 ovarian and with SF-268 CNS was above 100 µM each time. The TGI with SF-539 CNS was 97 µM; in the assay on U251 CNS, above 100 µM; in the assay with UACC-257 melanoma it was above 100 µM.
For `CC1CCC2(CC1)NC1=C(CC(C)CC1)C1=C2CC(C)CC1` (stereo not drawn), the TGI in the assay with ACHN renal was found to be 62.8 µM; in the assay with HT29 colon it was 46.5 µM; with KM12 colon, 40.2 µM; in the assay with NCI-H23 lung, 59 µM; with OVCAR-8 ovarian, 65.6 µM; with SF-539 CNS, 40.6 µM. Besides, the TGI in the assay with U251 CNS was 33.5 µM; in the assay on UACC-257 melanoma it was 72.9 µM.
Regarding `COc1ccc(C2C3CCc4ccccc4C3=NN2S(=O)(=O)c2ccc(/C=C/C(=O)O)cc2)cc1` (stereo not drawn), the TGI worked out at 14.1 µM with ACHN renal; 13.6 µM in the assay on HT29 colon; 43.4 µM in the assay with KM12 colon; 1.87 µM in the assay on NCI-H23 lung; 92.5 µM in the assay on OVCAR-8 ovarian; 71.2 µM in the assay on SF-268 CNS. For the same compound, the TGI in the assay with SF-539 CNS came to 6.29 µM; with U251 CNS, 11.6 µM.
For the compound `CCCCCC/C=C1\CCC(CN2CCOCC2)C1=O` (stereo not drawn), the TGI was found to be 31.2 µM in the assay with ACHN renal; 34.2 µM in the assay on HT29 colon; 24.7 µM with KM12 colon; 31.7 µM with NCI-H23 lung; 32.7 µM in the assay on OVCAR-8 ovarian; 43 µM in the assay on SF-268 CNS. Moreover, the TGI stood at 31.2 µM in the assay with SF-539 CNS, 29.3 µM in the assay with U251 CNS and 29.3 µM in the assay with UACC-257 melanoma.
For `COc1cccc(NC(=O)C(=O)C(C(=O)c2ccccc2F)C2OC(=O)c3ccccc32)c1` (stereo not drawn), the TGI in the assay on ACHN renal is above 100 µM; in the assay with HT29 colon, above 100 µM; with KM12 colon it was above 100 µM; with NCI-H23 lung, 98.1 µM; in the assay with OVCAR-8 ovarian, 60.9 µM; with SF-268 CNS, above 100 µM. Moreover, the TGI was 57.3 µM in the assay with SF-539 CNS, 36.2 µM with U251 CNS and above 100 µM with UACC-257 melanoma.
Consider `CC1C(OC2O[C@@H]3O[C@@]4(C)CC[C@H]5[C@H](C)CC[C@@H](C2C)[C@@]35O4)O[C@@H]2O[C@@]3(C)CC[C@H]4[C@H](C)CC[C@@H]1[C@@]24O3` (stereo partly drawn), for which the TGI in the assay with ACHN renal, in the assay with HT29 colon, with KM12 colon, with NCI-H23 lung, with OVCAR-8 ovarian and with SF-268 CNS was above 50 µM each time. Moreover, the TGI with SF-539 CNS, with U251 CNS and in the assay on UACC-257 melanoma was above 50 µM in each case.
As for `COC(=O)C1=C(C(=O)OC)SC2(S1)C(C(=O)OC)=C(C(=O)OC)Sc1c2ssc1=Nc1ccc(Cl)cc1`, the TGI was 2.7 µM with ACHN renal; 1.78 µM in the assay with HT29 colon; 2.11 µM with KM12 colon; 4.13 µM in the assay with NCI-H23 lung; 3.25 µM in the assay on OVCAR-8 ovarian; 1.68 µM with SF-539 CNS. Further, the TGI is 2.64 µM in the assay on U251 CNS and 2.3 µM with UACC-257 melanoma.
For `O=C1C(Cl)N(c2cccc([N+](=O)[O-])c2)C1c1c[nH]c2ccccc12` (stereo not drawn), the TGI is 43.7 µM with HT29 colon; 49.7 µM in the assay with KM12 colon; 85.9 µM with NCI-H23 lung; 60.4 µM with OVCAR-8 ovarian; above 100 µM in the assay on SF-268 CNS; 40.7 µM with SF-539 CNS. Further, the TGI is 56.6 µM with U251 CNS and 49 µM in the assay with UACC-257 melanoma.
Take `CC(C)(C)C1=CC(=C2C(=O)C(=O)c3ccccc3C2=O)C=C(C(C)(C)C)C1=O`: the TGI in the assay on ACHN renal, in the assay on HT29 colon, in the assay on KM12 colon, in the assay with NCI-H23 lung, in the assay with OVCAR-8 ovarian and in the assay with SF-268 CNS was above 100 µM throughout. In addition, the TGI is above 100 µM with SF-539 CNS, above 100 µM in the assay on U251 CNS and 80.2 µM in the assay on UACC-257 melanoma.
As to `O=C(O)C12CCCCC1CCCC2` (stereo not drawn), the TGI with ACHN renal, with HT29 colon, in the assay on KM12 colon, in the assay with NCI-H23 lung, with OVCAR-8 ovarian and with SF-268 CNS was above 100 µM each time. Further, the TGI in the assay with SF-539 CNS and with U251 CNS was above 100 µM throughout.
`O=Cc1ccc(CCl)cc1`: the TGI was determined as 54 µM in the assay on ACHN renal; 34.2 µM with HT29 colon; 60.3 µM in the assay on KM12 colon; 35.2 µM in the assay with OVCAR-8 ovarian; 66.9 µM with SF-268 CNS; 31.6 µM with SF-539 CNS. The figures for the TGI with U251 CNS and with UACC-257 melanoma were 35.4 µM and 36.5 µM, respectively.
Take `COP(=O)(OC)C(O)CC(C)C` (stereo not drawn): the TGI with ACHN renal, in the assay with HT29 colon, in the assay with KM12 colon, in the assay with U251 CNS and in the assay with UACC-257 melanoma was above 100 µM in each case.
